Test results: patent US20250171430A1, “PYRAZOLYL COMPOUNDS AS KV7 CHANNEL ACTIVATORS” (Biohaven Therapeutics Ltd., priority 2022, published 2025)

molecular target: T1, Kv7.2/7.3 (Homo sapiens, UniProt O43525+O43526); test: Kv7.2/7.3 Activation Assay (Thallium Flux Assay); type: cell-based; conditions: hKV7.2/7.3 cell line; test compound at single concentration of 10 μM; fluorescence at 90 sec normalized to positive control (retigabine, 30 μM)
T1 construct: Kv7.2 tetracycline-induced, Kv7.3 constitutive
Method in brief: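 Human Kv7.2/7.3 cells with Kv7.2 induced overnight by 10 ng/mL tetracycline were loaded with FluxOR II Green for 1 h at 37 °C. Compounds were tested at 10 μM in 0.1% DMSO/extracellular solution, pH 7.4. Thallium/potassium stimulus was added after a 15 s baseline, and 90 s fluorescence (ex 475/em 530 nm) was normalized to 30 μM retigabine.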

Row | Structure (SMILES) | Kv7.2/7.3 Activity
1 | Cn1nc(NC(=O)[C@H]2C[C@@]2(C)C(F)F)c(C2CCC2)c1-c1ccc(F)cc1 [Compound 112, (1S,2R)-N-(4-cyclobutyl-5-(4-fluorophenyl)-1-methyl-1H-pyrazol-3-yl)-2-(difluoromethyl)-2-methylcyclopropane-1-carboxamide] | ++ (“++” High Activity ≥ 0.7)
2 | C[C@H](C(=O)Nc1nn(C)c(-c2ccc(F)cc2)c1C1CCC1)C(C)(C)C [Compound 113, (S)-N-(4-cyclobutyl-5-(4-fluorophenyl)-1-methyl-1H-pyrazol-3-yl)-2,3,3-trimethylbutanamide] | ++ (“++” High Activity ≥ 0.7)
3 | C[C@@H](C(=O)Nc1nn(C)c(-c2ccc(F)cc2)c1C1CCC1)C(C)(C)C [Compound 114, (R)-N-(4-cyclobutyl-5-(4-fluorophenyl)-1-methyl-1H-pyrazol-3-yl)-2,3,3-trimethylbutanamide] | ++ (“++” High Activity ≥ 0.7)
4 | Cn1nc(NC(=O)C[C@H](O)C(C)(C)C)c(C2CCC2)c1-c1ccc(F)cc1 [Compound 115, (S)-N-(4-cyclobutyl-5-(4-fluorophenyl)-1-methyl-1H-pyrazol-3-yl)-3-hydroxy-4,4-dimethylpentanamide] | + (“+” Moderate Activity 0.15-0.7)
5 | Cn1nc(NC(=O)C[C@](C)(O)C2CC(F)(F)C2)c(C2CCC2)c1-c1ccc(F)cc1 [Compound 116, (S)-N-(4-cyclobutyl-5-(4-fluorophenyl)-1-methyl-1H-pyrazol-3-yl)-3-(3,3-difluorocyclobutyl)-3-hydroxybutanamide] | + (“+” Moderate Activity 0.15-0.7)
6 | Cn1nc(NC(=O)C(F)(F)C(C)(O)c2ccccc2)c(C2CCC2)c1-c1ccc(F)cc1 (stereo not drawn) [Compound 117, N-(4-cyclobutyl-5-(4-fluorophenyl)-1-methyl-1H-pyrazol-3-yl)-2,2-difluoro-3-hydroxy-3-phenylbutanamide] | ++ (“++” High Activity ≥ 0.7)
7 | Cn1nc(NC(=O)[C@H]2C[C@@H](C(F)(F)F)C2)c(C2CCC2)c1-c1ccc(F)cc1 [Compound 118, (1S,3S)-N-(4-cyclobutyl-5-(4-fluorophenyl)-1-methyl-1H-pyrazol-3-yl)-3-(trifluoromethyl)cyclobutane-1-carboxamide] | ++ (“++” High Activity ≥ 0.7)
8 | Cn1nc(NC(=O)[C@H]2C[C@H](C(F)(F)F)C2)c(C2CCC2)c1-c1ccc(F)cc1 [Compound 119, (1R,3R)-N-(4-cyclobutyl-5-(4-fluorophenyl)-1-methyl-1H-pyrazol-3-yl)-3-(trifluoromethyl)cyclobutane-1-carboxamide] | ++ (“++” High Activity ≥ 0.7)

Continued, values first:

Row | Kv7.2/7.3 Activity | Structure (SMILES)
9 | ++ (“++” High Activity ≥ 0.7) | Cn1nc(NC(=O)[C@@H]2CCC(F)(F)C2)c(C2CCC2)c1-c1ccc(F)cc1 [Compound 120, (R)-N-(4-cyclobutyl-5-(4-fluorophenyl)-1-methyl-1H-pyrazol-3-yl)-3,3-difluorocyclopentane-1-carboxamide]
10 | ++ (“++” High Activity ≥ 0.7) | Cn1nc(NC(=O)C2CC(C)(C)C2)c(C2CCC2)c1-c1ccc(F)cc1 [Compound 121, N-(4-cyclobutyl-5-(4-fluorophenyl)-1-methyl-1H-pyrazol-3-yl)-3,3-dimethylcyclobutane-1-carboxamide]
11 | ++ (“++” High Activity ≥ 0.7) | Cn1nc(NC(=O)[C@H]2C[C@@H](C)C2)c(C2CCC2)c1-c1ccc(F)cc1 [Compound 122, (1S,3S)-N-(4-cyclobutyl-5-(4-fluorophenyl)-1-methyl-1H-pyrazol-3-yl)-3-methylcyclobutane-1-carboxamide]
12 | ++ (“++” High Activity ≥ 0.7) | Cn1nc(NC(=O)[C@H]2C[C@H](C)C2)c(C2CCC2)c1-c1ccc(F)cc1 [Compound 123, (1R,3R)-N-(4-cyclobutyl-5-(4-fluorophenyl)-1-methyl-1H-pyrazol-3-yl)-3-methylcyclobutane-1-carboxamide]
